Measurements published in PubChem BioAssay AID342 (DTP/NCI, 2004).
Where “and” joins values, the source holds several entries; their conditions need not be identical. Equal values may be shown once.

Test system: Swiss mice, Sarcoma 180 sc, mean tumor weight T/C
Assay: NCI In Vivo Anticancer Drug Screen. Data for tumor model Sarcoma 180 (subcutaneous) in Swiss mice
Conditions: endpoint: mean tumor weight, higher = larger tumour
How it was run: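 Readout is the ratio of treated-group measurement to vehicle-control measurement (T/C), based on survival or tumor size in mice carrying transplanted tumors.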

[1] = dose: 250.0 mg/kg/injection, schedule: Q01DX007 (ip), vehicle: carboxymethylcellulose (CMC)
[2] = dose: 500.0 mg/kg/injection, schedule: Q01DX007 (ip), vehicle: carboxymethylcellulose (CMC)
[3] = dose: 37.5 mg/kg/injection, schedule: Q01DX007 (ip), vehicle: carboxymethylcellulose (CMC)
[4] = dose: 75.0 mg/kg/injection, schedule: Q01DX007 (ip), vehicle: carboxymethylcellulose (CMC)
[5] = dose: 150.0 mg/kg/injection, schedule: Q01DX007 (ip), vehicle: carboxymethylcellulose (CMC)

## COc1ccc(C[C@H]2NC[C@H](O)[C@H]2OC(C)=O)cc1
dose: 3.13 mg/kg/injection, schedule: Q01DX007 (ip), vehicle: saline
  T/C: 65 % of control
dose: 6.25 mg/kg/injection, schedule: Q01DX007 (ip), vehicle: saline
  T/C: 69 % of control
dose: 12.5 mg/kg/injection, schedule: Q01DX007 (ip), vehicle: saline
  T/C: 58 % of control
dose: 25.0 mg/kg/injection, schedule: Q01DX007 (ip), vehicle: saline
  T/C: 56 % of control and 66 % of control
dose: 50.0 mg/kg/injection, schedule: Q01DX007 (ip), vehicle: saline
  T/C: 108 % of control
dose: 100.0 mg/kg/injection, schedule: Q01DX007 (ip), vehicle: saline
  T/C: 104 % of control

## CC(=O)OCC(=O)[C@@]1(O)CC[C@H]2[C@@H]3C[C@@H](C)C4=CC(=O)C=C[C@]4(C)[C@H]3[C@@H](O)C[C@@]21C
dose: 32.0 mg/kg/injection, schedule: Q01DX007 (sc), vehicle: steriod suspending solution
  T/C: 51 % of control
dose: 49.0 mg/kg/injection, schedule: Q01DX007 (sc), vehicle: steriod suspending solution
  T/C: 56 % of control
dose: 73.0 mg/kg/injection, schedule: Q01DX007 (sc), vehicle: steriod suspending solution
  T/C: 40 % of control and 55 % of control
dose: 109.0 mg/kg/injection, schedule: Q01DX007 (sc), vehicle: steriod suspending solution
  T/C: 48 % of control
dose: 111.0 mg/kg/injection, schedule: Q01DX007 (sc), vehicle: steriod suspending solution
  T/C: 31 % of control
dose: 165.0 mg/kg/injection, schedule: Q01DX007 (sc), vehicle: steriod suspending solution
  T/C: 36 % of control and 47 % of control
dose: 248.0 mg/kg/injection, schedule: Q01DX007 (sc), vehicle: steriod suspending solution
  T/C: 35 % of control
dose: 251.0 mg/kg/injection, schedule: Q01DX007 (sc), vehicle: steriod suspending solution
  T/C: 33 % of control
dose: 375.0 mg/kg/injection, schedule: Q01DX007 (sc), vehicle: steriod suspending solution
  T/C: 31 % of control

## O=S(c1ccc(Cl)cc1)c1ccc(Cl)cc1
[1]
  T/C: 105 % of control
[2]
  T/C: 96 % of control

## CCC(=O)O[C@H]1CC[C@H]2[C@@H]3CCC4=CC(=O)CC[C@]4(C)[C@H]3[C@@H](O)C[C@]12C
dose: 12.5 mg/kg/injection, schedule: Q#A X014 (sc), vehicle: steriod suspending solution
  T/C: 96 % of control
dose: 125.0 mg/kg/injection, schedule: Q#A X014 (sc), vehicle: steriod suspending solution
  T/C: 88 % of control
dose: 250.0 mg/kg/injection, schedule: Q#A X014 (sc), vehicle: steriod suspending solution
  T/C: 94 % of control

## CN(C)C1=C(Cl)C(=O)C(=O)c2cccnc21
dose: 6.25 mg/kg/injection, schedule: Q01DX007 (ip), vehicle: water
  T/C: 89 % of control
dose: 12.5 mg/kg/injection, schedule: Q01DX007 (ip), vehicle: water
  T/C: 81 % of control

## Clc1ccc2c(Cl)ncnc2c1
dose: 22.0 mg/kg/injection, schedule: Q#A X014 (ip), vehicle: methylcellulose (MC)
  T/C: 58 % of control and 64 % of control
dose: 22.5 mg/kg/injection, schedule: Q#A X014 (ip), vehicle: methylcellulose (MC)
  T/C: 80 % of control
dose: 33.0 mg/kg/injection, schedule: Q#A X014 (ip), vehicle: methylcellulose (MC)
  T/C: 57 % of control and 65 % of control
dose: 33.5 mg/kg/injection, schedule: Q#A X014 (ip), vehicle: methylcellulose (MC)
  T/C: 51 % of control
dose: 50.0 mg/kg/injection, schedule: Q#A X014 (ip), vehicle: methylcellulose (MC)
  T/C: 42 % of control and 48 % of control and 64 % of control
dose: 75.0 mg/kg/injection, schedule: Q#A X014 (ip), vehicle: methylcellulose (MC)
  T/C: 21 % of control

## C[C@@H]1C[C@@H]([C@H](O)CC2CC(=O)NC(=O)C2)C(=O)[C@@H](C)C1
dose: 3.0 mg/kg/injection, schedule: Q#A X014 (ip), vehicle: carboxymethylcellulose (CMC)
  T/C: 79 % of control and 92 % of control
dose: 6.25 mg/kg/injection, schedule: Q#A X014 (ip), vehicle: carboxymethylcellulose (CMC)
  T/C: 77 % of control
dose: 9.6 mg/kg/injection, schedule: Q01DX007 (ip), vehicle: carboxymethylcellulose (CMC)
  T/C: 85 % of control and 96 % of control and 106 % of control
dose: 12.0 mg/kg/injection, schedule: Q01DX007 (ip), vehicle: carboxymethylcellulose (CMC)
  T/C: 100 % of control (2×) and 122 % of control
dose: 12.0 mg/kg/injection, schedule: Q#A X014 (ip), vehicle: carboxymethylcellulose (CMC)
  T/C: 38 % of control and 63 % of control
dose: 12.5 mg/kg/injection, schedule: Q#A X014 (ip), vehicle: carboxymethylcellulose (CMC)
  T/C: 68 % of control
dose: 24.0 mg/kg/injection, schedule: Q01DX007 (ip), vehicle: carboxymethylcellulose (CMC)
  T/C: 58 % of control and 60 % of control and 65 % of control

## O=c1[nH]c2cc(Cl)c(Cl)cc2o1
dose: 19.0 mg/kg/injection, schedule: Q01DX007 (ip), vehicle: carboxymethylcellulose (CMC)
  T/C: 83 % of control
[3]
  T/C: 90 % of control
[4]
  T/C: 94 % of control
[5]
  T/C: 81 % of control

## C[N+]1(CCC[N+]2(C)C[C@@H]3[C@H](C2)[C@@H]2C=C[C@H]3C2)CCOCC1 (stereo partly specified)
dose: 125.0 mg/kg/injection, schedule: Q01DX007 (ip), vehicle: saline
  T/C: 95 % of control
dose: 500.0 mg/kg/injection, schedule: Q01DX007 (ip), vehicle: saline
  T/C: 111 % of control

## COc1cc2c(c(OC3OC(CO)C(O)C(O)C3O)c1)C(=O)CC(c1ccc(O)cc1)O2 (stereo unspecified)
dose: 100.0 mg/kg/injection, schedule: Q01DX007 (ip), vehicle: other
  T/C: 90 % of control
dose: 200.0 mg/kg/injection, schedule: Q01DX007 (ip), vehicle: other
  T/C: 71 % of control

## CC(C)CC(C#N)C(N)=O (stereo unspecified)
dose: 7.5 mg/kg/injection, schedule: Q01DX007 (ip), vehicle: methylcellulose (MC)
  T/C: 108 % of control
dose: 30.0 mg/kg/injection, schedule: Q01DX007 (ip), vehicle: methylcellulose (MC)
  T/C: 96 % of control

## C[C@]12C=CC(=O)C=C1CC[C@@H]1[C@@H]2CC[C@]2(C)OC(=O)CC[C@@H]12
dose: 250.0 mg/kg/injection, schedule: Q01DX007 (sc), vehicle: steriod suspending solution
  T/C: 74 % of control and 99 % of control
dose: 500.0 mg/kg/injection, schedule: Q01DX007 (sc), vehicle: steriod suspending solution
  T/C: 83 % of control and 105 % of control

## Nc1nc(=S)c2ncn(C3OC(COC(=O)c4ccc([N+](=O)[O-])cc4)C(OC(=O)c4ccc([N+](=O)[O-])cc4)C3OC(=O)c3ccc([N+](=O)[O-])cc3)c2[nH]1 (stereo unspecified)
dose: 4.0 mg/kg/injection, schedule: Q01DX007 (ip), vehicle: carboxymethylcellulose (CMC)
  T/C: 77 % of control
dose: 7.0 mg/kg/injection, schedule: Q01DX007 (ip), vehicle: carboxymethylcellulose (CMC)
  T/C: 94 % of control
dose: 15.0 mg/kg/injection, schedule: Q01DX007 (ip), vehicle: carboxymethylcellulose (CMC)
  T/C: 93 % of control and 110 % of control
dose: 23.0 mg/kg/injection, schedule: Q01DX007 (ip), vehicle: methylcellulose (MC)
  T/C: 63 % of control
dose: 35.0 mg/kg/injection, schedule: Q01DX007 (ip), vehicle: carboxymethylcellulose (CMC)
  T/C: 37 % of control
dose: 36.0 mg/kg/injection, schedule: Q01DX007 (ip), vehicle: carboxymethylcellulose (CMC)
  T/C: 29 % of control and 32 % of control
dose: 36.0 mg/kg/injection, schedule: Q01DX007 (ip), vehicle: methylcellulose (MC)
  T/C: 77 % of control
dose: 53.0 mg/kg/injection, schedule: Q01DX007 (ip), vehicle: carboxymethylcellulose (CMC)
  T/C: 15 % of control and 30 % of control
dose: 53.0 mg/kg/injection, schedule: Q01DX007 (ip), vehicle: methylcellulose (MC)
  T/C: 56 % of control
dose: 80.0 mg/kg/injection, schedule: Q01DX007 (ip), vehicle: carboxymethylcellulose (CMC)
  T/C: 16 % of control
dose: 80.0 mg/kg/injection, schedule: Q01DX007 (ip), vehicle: methylcellulose (MC)
  T/C: 62 % of control

## O=C(O)CCCNC(=O)c1ccc([N+](=O)[O-])cc1
dose: 125.0 mg/kg/injection, schedule: Q01DX007 (ip), vehicle: methylcellulose (MC)
  T/C: 67 % of control
dose: 250.0 mg/kg/injection, schedule: Q01DX007 (ip), vehicle: methylcellulose (MC)
  T/C: 78 % of control

## CS(=O)(=O)OCCCCCOS(C)(=O)=O
dose: 16.5 mg/kg/injection, schedule: Q#A X014 (ip), vehicle: methylcellulose (MC)
  T/C: 54 % of control and 65 % of control
dose: 37.5 mg/kg/injection, schedule: Q#A X014 (ip), vehicle: methylcellulose (MC)
  T/C: 54 % of control
dose: 56.5 mg/kg/injection, schedule: Q#A X014 (ip), vehicle: methylcellulose (MC)
  T/C: 9 % of control

## CC1NC(=O)NC1CCCCCC(=O)O (stereo unspecified)
dose: 125.0 mg/kg/injection, schedule: Q01DX007 (ip), vehicle: carboxymethylcellulose (CMC)
  T/C: 103 % of control
[1]
  T/C: 73 % of control
[2]
  T/C: 122 % of control
dose: 1000.0 mg/kg/injection, schedule: Q01DX007 (ip), vehicle: carboxymethylcellulose (CMC)
  T/C: 105 % of control

## CC(C)(c1ccccc1)c1ccc(O)cc1
[3]
  T/C: 64 % of control
[4]
  T/C: 73 % of control
[5]
  T/C: 44 % of control

## CNCCc1ccccc1
dose: 110.0 mg/kg/injection, schedule: Q01DX007 (ip), vehicle: saline
  T/C: 77 % of control
